Source: patent publication US10076504B2, “Glucagon antagonists” (Ligand Pharmaceuticals, Inc., priority 2014, dated 2018)
“Also recorded” adds a separate entry of the source. Where two headings read alike, the source gives them in different places.

Columns and labels:
[1] = Liver microsome incubation; assay type: in vitro ADME, dog
Procedure: (§1) The compound of Formula IIIa (below) was incubated for 60 minutes at 37 C with mouse, rat, dog, monkey, and human liver microsomes.
(§2) Concentrations of IIIa were measured at multiple time points by LC-MS/MS. IIIa was stable with predicted clearance well below hepatic blood flow in all species.

[2] = Liver microsome incubation; assay type: in vitro ADME, monkey
Procedure: as §1, §2

[3] = Single ascending dose study, pharmacokinetics; assay type: in vivo, human; conditions: for AUC(0-inf) / Cmax / Tmax / half-life: human, plasma, po; for time to peak plasma concentrations: post dose
Procedure: (§3) Oral doses of IIIa were administered to normal healthy volunteers (NHV) and subjects with type 2 diabetes mellitus (T2DM). A single center, randomized, double-blind, placebo-controlled single ascending dose study was done in both NHV (n=48) and T2DM subjects (n=8). Dose escalation only occurred after review of safety and tolerability data from previous dose levels (n=8/cohort; 2-placebo & 6-IIIa). Dosing of the T2DM cohort was initiated only after the equivalent dose had been administered to NHV and safety data had been reviewed. All subjects were administered IIIa in the morning after an overnight fast with the exception of the NHV in the 40 mg cohort. NHV subjects in the 40 mg cohort initially received IIIa in a fasted state. Following a 3 week washout period, IIIa was readministered after breakfast at 40 mg to determine the effects of food consumption on pharmacokinetics.
This was a single center, randomized, double-blind, placebo-controlled single ascending dose study in both normal healthy volunteers (NHV) (n=48) and subjects with type 2 diabetes mellitus (T2DM) (n=8). All subjects were administered Formula IIIa as a solution formulated with Captisol® after an overnight fast with the exception of the NHV in the 40 mg cohort. The NHV 40 mg cohort initially received Formula IIIa in a fasted state. Following a washout period, subjects received 40 mg Formula IIIa after breakfast to explore the effects of food consumption on pharmacokinetics.
Plasma levels of Formula IIIa were measured by validated LC-MS/MS method. Formula IIIa was well absorbed after oral administration with peak plasma concentrations reached approximately 5-8 hours post dose. Consistent with preclinical predictions, clearance was slow and Formula IIIa was not detected in the urine.

[4] = Pharmacokinetics after oral and IV administration; assay type: in vivo; conditions: IV Dose 1 mg/kg, PO Dose 3 mg/kg; for AUC(0-t) / Cmax / Tmax / clearance / half-life / Vd: plasma; for Vd: read-out: VSS
Procedure: (§4) Pharmacokinetics of IIIa were evaluated after both oral and IV administration in mice, rats, dogs, and monkeys.

[5] = Liver microsome incubation, statement for all species; assay type: in vitro ADME; conditions: predicted clearance well below hepatic blood flow
Procedure: as §1, §2

[6] = Liver microsome incubation; assay type: in vitro ADME, rat
Procedure: as §1, §2

[7] = Liver microsome incubation; assay type: in vitro ADME, mouse
Procedure: as §1, §2

[8] = Excretion experiments in rats; assay type: in vivo, rat
Procedure: as §4

[9] = system: fasting plasma glucose; experiment: Single ascending dose study, pharmacodynamics; assay type: in vivo, human
Procedure: as §3
Formula IIIa was well-absorbed after oral administration; peak plasma concentrations were reached approximately 5 to 8 hours post dose with a long elimination half-life of about 50 hours. Such data supports, for example, once-daily dosing of Formula III. The effects of Formula IIIa on fasting and post-prandial plasma glucose, glucagon, insulin, and glucagon-like peptide-1 (GLP-1) were evaluated in NH and T2DM subjects, and a meal tolerance test (MTT) and continuous glucose monitoring (CGM) were performed in T2DM subjects. […] The decrease in glucose was most obvious in the fasting plasma glucose (FPG) levels 24 and 48 hours post-dose. The magnitude of decrease in FPG was greater in subjects with T2DM than in NH subjects.

[10] = Liver microsome incubation; assay type: in vitro ADME, human
Procedure: as §1, §2

[11] = human subjects, oral administration
[12] = 40 mg, Diabetic, 40 mg oral, Fasted
[13] = 40 mg, Normal healthy volunteer, 40 mg oral, Fasted
[14] = 40 mg, Normal healthy volunteer, 40 mg oral, Fed
[15] = T2DM subjects, single dose 40 mg

## Cc1cc(C)c(-c2ccc(NC(=O)[C@H](Cc3ccc(C(=O)NCCS(=O)(=O)O)cc3)c3ccc(-c4ccc(C(C)(C)C)cc4)cc3)cc2)c(C)c1 [IIIa]
[1]; Dog liver microsomes, 60 minutes at 37 C
  1st-order kinetic rate constant: 0.0016 min⁻¹
[1]; Dog, from liver microsomes
  Predicted systemic clearance: 4.01 mL/min/kg body weight
[2]; Monkey liver microsomes, 60 minutes at 37 C
  1st-order kinetic rate constant: 0.0057 min⁻¹
[2]; Monkey, from liver microsomes
  Predicted systemic clearance: 11.9 mL/min/kg body weight
[3]; 40 mg
  pharmacokinetics in healthy volunteers vs diabetic subjects: comparable
[3]; 40 mg, healthy volunteers, fasted vs after breakfast
  effect of food on pharmacokinetics: comparable
[3]; 2 to 480 mg oral, human subjects
  plasma exposure versus dose: Dose dependent increases
[3]; Diabetic, 40 mg oral, Fasted
  CL/F: 1.32 L/h
[3]; Normal healthy volunteer, 40 mg oral, Fasted
  CL/F: 1.33 L/h
[3]; Normal healthy volunteer, 40 mg oral, Fed
  CL/F: 1.67 L/h
[3]; human subjects
  absorption after oral administration: well absorbed
[3]; [11]
  clearance: slow
  detection in the urine: not detected
[3]; human subjects, listed as Formula IIIa
  absorption after oral administration: well absorbed; also recorded: well-absorbed
[3]; [12]
  AUC(0-inf): 33700 ng·h/mL
  Cmax: 1420 ng/mL
  Tmax: 7.5 h
[3]; 40 mg, Diabetic, 40 mg oral, Fasted, read-out: t1/2 (converted)
  half-life: 2.44 days
[3]; [13]
  AUC(0-inf): 32700 ng·h/mL
  Cmax: 893 ng/mL
  Tmax: 8.4 h
[3]; 40 mg, Normal healthy volunteer, 40 mg oral, Fasted, read-out: t1/2 (converted)
  half-life: 2.15 days
[3]; [14]
  AUC(0-inf): 25200 ng·h/mL
  Cmax: 779 ng/mL
  Tmax: 7.2 h
[3]; 40 mg, Normal healthy volunteer, 40 mg oral, Fed, read-out: t1/2 (converted)
  half-life: 2.24 days
[3]; oral administration, NH and T2DM subjects, read-out: elimination half-life (converted)
  half-life: ~2.08 days
[3]; oral administration, human subjects
  time to peak plasma concentrations: 5 to 8 h
[3]; oral administration, human subjects, listed as Formula IIIa
  time to peak plasma concentrations: 5 to 8 h
[4]; Dog
  F: 54%
  AUC(0-t): 225000 ng·h/mL
  Cmax: 10900 ng/mL
  Tmax: 4 h
  clearance: 0.07 mL/min/kg
  half-life: 2760 min
  Vd: 0.24 L/kg
[4]; Monkey
  F: 21%
  AUC(0-t): 9850 ng·h/mL
  Cmax: 1250 ng/mL
  Tmax: 4 h
  clearance: 1.13 mL/min/kg
  half-life: 972 min
  Vd: 0.16 L/kg
[4]; Mouse
  F: 47%
  AUC(0-t): 16300 ng·h/mL
  Cmax: 1710 ng/mL
  Tmax: 6 h
  clearance: 22.2 mL/min/kg
  half-life: 354 min
  Vd: 0.62 L/kg
[4]; Rat
  F: 36%
  AUC(0-t): 7600 ng·h/mL
  Cmax: 1330 ng/mL
  Tmax: 2 h
  clearance: 2.33 mL/min/kg
  half-life: 654 min
  Vd: 0.3 L/kg
[5]
  stability in liver microsomes: stable
[6]; Rat liver microsomes, 60 minutes at 37 C
  1st-order kinetic rate constant: 0.0058 min⁻¹
[6]; Rat, from liver microsomes
  Predicted systemic clearance: 13.8 mL/min/kg body weight
[7]; Mouse liver microsomes, 60 minutes at 37 C
  1st-order kinetic rate constant: 0.0017 min⁻¹
[7]; Mouse, from liver microsomes
  Predicted systemic clearance: 7.05 mL/min/kg body weight
[8]
  levels detected in the urine: negligible
  route of excretion: primarily excreted in the bile
[9]; NH subjects
  glucose levels: small decreases in glucose levels approximating dose-dependency
[9]; NH subjects, dose-dependent up to 240 mg, 24 to 96 hours post-dose
  mean glucagon and total GLP-1 levels: increased
[9]; T2DM subjects
  glucose levels: lowered glucose levels
[9]; T2DM subjects, single dose
  duration of glucose suppression: continued through 48 hours
[9]; [15]
  lowering of fasting plasma glucose: 50 mg/dL
  lowering of fasting plasma glucose, placebo adjusted: 57 mg/dL
[9]; all dose groups, single dose
  changes in active GLP-1 or insulin levels: did not generate a consistent trend
[9]; normal healthy volunteers
  duration of glucose suppression: continued through 48 hours
[9]; normal healthy volunteers, single dose 2 to 480 mg
  fasting plasma glucose: lowered fasting plasma glucose
[9]; subjects with T2DM
  24-hour glucose AUC (continuous glucose monitoring): reduction
[9]; subjects with T2DM, compared to placebo, 24 to 72 hours post-dose
  mean glucagon and total GLP-1 levels: increased compared to placebo treatment
[10]; Human liver microsomes, 60 minutes at 37 C
  1st-order kinetic rate constant: 0.0021 min⁻¹
[10]; Human, from liver microsomes
  Predicted systemic clearance: 3.18 mL/min/kg body weight
